Each structure is given as a SMILES string. Active and inactive are the calls of the source. Cut-off read from the data, not from the text of the source: actives have a measured IC50 and inactives only a lower limit.

In the assay the target is Envelope glycoprotein gp160 (Human immunodeficiency virus 1, UniProt Q6QLK5). Nature of the assay: inhibitors of HIV fusion peptide binding, primary screen, biochemical, uHTS, fluorescence dequenching (AID 1986).
Chain of Envelope glycoprotein gp160 (Q6QLK5 whole entry, the tested form may be a part): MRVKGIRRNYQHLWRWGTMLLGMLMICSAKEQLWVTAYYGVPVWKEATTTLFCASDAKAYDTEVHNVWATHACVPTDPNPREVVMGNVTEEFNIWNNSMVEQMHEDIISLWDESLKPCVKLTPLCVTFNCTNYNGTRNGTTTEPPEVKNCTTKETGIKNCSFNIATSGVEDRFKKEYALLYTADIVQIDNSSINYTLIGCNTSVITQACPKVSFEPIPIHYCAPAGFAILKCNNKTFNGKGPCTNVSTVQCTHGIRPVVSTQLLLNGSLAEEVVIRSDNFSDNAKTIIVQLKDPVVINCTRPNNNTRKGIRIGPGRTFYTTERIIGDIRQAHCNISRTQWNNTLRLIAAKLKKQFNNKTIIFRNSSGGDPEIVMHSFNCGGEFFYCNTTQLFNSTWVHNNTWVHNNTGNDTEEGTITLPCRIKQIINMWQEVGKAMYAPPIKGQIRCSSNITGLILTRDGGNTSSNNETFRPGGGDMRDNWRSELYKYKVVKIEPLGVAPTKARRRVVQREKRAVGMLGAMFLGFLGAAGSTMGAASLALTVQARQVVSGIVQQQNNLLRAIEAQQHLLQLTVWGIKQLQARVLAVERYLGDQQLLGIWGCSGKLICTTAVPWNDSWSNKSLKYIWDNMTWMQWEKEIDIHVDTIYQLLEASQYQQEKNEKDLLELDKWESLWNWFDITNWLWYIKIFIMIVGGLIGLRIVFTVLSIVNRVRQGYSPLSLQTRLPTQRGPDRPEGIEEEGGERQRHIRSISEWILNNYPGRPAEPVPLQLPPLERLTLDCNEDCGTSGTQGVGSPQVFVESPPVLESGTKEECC
As a reminder, the IC50 is the concentration at which inhibition is half-maximal. In the case of `CS(=O)(=O)C1=NSC2=NC(=O)/C(=C\c3cccn3-c3ccc(Cl)cc3)C(=N)N21`, the IC50 was 18.5 µM (active).
In the case of `CC(C)CS(=O)(=O)C1=NSC2=NC(=O)/C(=C\c3ccc(OC(=O)c4ccco4)cc3)C(=N)N21`, the IC50 is 15.6 µM (active).
Regarding `CSc1ccc(C(c2c(C(=O)O)[nH]c3ccccc23)c2c(C(=O)O)[nH]c3ccccc23)cc1`, the IC50 was 8.99 µM (active).
Take `CCOc1ccc(CCNC(=O)c2ccc3c(=O)[nH]c4c(C(=O)NC(C)C)sc(=S)n4c3c2)cc1`: the IC50 is 62.5 µM (active).
`COc1cc([N+](=O)[O-])cc(/C=N/NC(=O)c2cc(-c3ccccc3)nc3ccccc23)c1O`: the IC50 was 30.3 µM (active).

The values above are taken from ChEMBL document CHEMBL1201862, “PubChem BioAssay data set” (2004).
